Results published in patent US20090203877A1, “X-RAY-DENSE CONJUGATE” (Eberhard-Karls-Universitaet Tuebingen Universitaetsklinkum, priority 2006, published 2009).
“Also recorded” adds a separate entry of the source.

Experiments:
[1] = test system: human malignant LN18 glioma cells; assay: Cell viability / cell death (annexin-V-Alexa 568 binding, propidium iodide, FACS scatter morphology); format: cell-based; settings: 260 μM, 20 min, substance alone
Method: All measurements were performed on living, non-fixed cells. […] All measurements were performed on living cells. […] All measurements were performed on living cells in triplicates. […] All measurements were performed on living cells.

[2] = test system: human malignant U373 glioma cells; assay: Cell viability / cell death (MTT test, propidium iodide, annexin-V-Alexa 568 binding, FACS scatter morphology); settings: for binding of annexin-V-Alexa 568 reagent (phosphatidyl serine) / cytotoxic effects: 260 μM in 0.1% DMSO/PBS; for binding of annexin-V-Alexa 568 reagent (phosphatidyl serine) / cytotoxic effects / cytotoxic effects / signs of cell death: substance alone; for cytotoxic effects / signs of cell death: 260 μM in PBS
Method: Human malignant U373-glioma cells were grown to 70% confluency in RPMI-1640 Ready Mix Medium containing L-Glutamine and 10% FBS-Gold (PAA laboratories, Pasching, Austria) at 37° C., 5% CO2 (vol/vol), in 4-well-plates (NUNC, Wiesbaden, Germany) with about 300,000 cells pro well. […] After this, the cells were washed three times with buffer and then incubated with Ready Mix Medium again. Cell viability was then assessed by the addition of methyl-thiazoyl-tetrazolium (MTT) salt (Sigma-Aldrich, Germany) at a concentration of 15 mg/ml. After 20 minutes, the production of formazan was investigated. When blue formazan granules were detected, propidium iodine (PI) was added to the medium (1 μM PI; Molecular Probes, Eugene, Oreg., USA) to detect cells with damaged cell membranes. […] Pictures were taken with a 3-CCD color video camera (MC3254P, Sony, Japan) and the Axiovision Software (Carl Zeiss, Jena, Germany). The intensity of cell fluorescence was recorded at the exposure time necessary for the production of the fluorescence images.
After imaging, Accutase™ (PAA laboratories, Pasching, Austria) was added to the wells to achieve detachment of the cells for further FACS analysis. Fluorescence was measured in a Becton Dickinson FACSCalibur. A total of 20,000 events per sample were analyzed. The investigations were performed in triplicate.
A sample of cells from each Eppendorf tube was subjected to the MTT test (described under 1.4) to determine microscopically whether the cells were viable. In vitro CT of the cell pellets was performed with a Somatom Sensation 16 (Siemens) which is used for routine clinical investigations.
Cells were incubated for 20 minutes with each of the conjugates dissolved in 0.1% DMSO/PBS at 260 μm. The cells were also incubated with TIBA and both of the non-TIBA-containing conjugates (3 and 4) separately in 0.1% DMSO/OBS at 260 μm. Both TIBA and the conjugates were dissolved in 0.1% DMSO/PBS at 260 μm for incubation due to the insolubility of TIBA (but not the conjugates) in pure PBS. As controls, the cells were incubated with PBS alone, 0.1% DMSO/PBS alone, and TIBA alone (260 μm in 0.1% DMSO/PBS).
The detection of phosphatidyl serine in the outer membrane leaflet of apoptotic cells was performed with the Annexin-V-Alexa™-568-reagent according to manufacturer's protocol (Roche Molecular Biochemicals, Indianapolis, USA). The confocal laser-scanning microscopy was performed on an inverted LSM 510 laser-scanning microscope (Carl Zeiss, Jena, Germany) (objectives: LD Achroplan 40×0.6, Plan Neofluar 20×0.50, 40×0.75). For fluorescence excitation, the 488 nm line of an argon-ion laser and the […] line of a helium-neon laser with appropriate beam splitters and barrier filters were used for FITC and Alexa respectively. Superimposed images of FITC- and Alexa-stained samples were created by overlaying coincident views. All measurements were performed on living, non-fixed cells.
Human malignant LN18 and U373 glioma cells were cultivated in four-well plates (NUNC, Wiesbaden, Germany) (about 300,000 cells per well) as described under 1.5. […] The cells were also coincubated either with CIBA, FIBA or TBPI as well as the NLS-FITC conjugate 3 (each 260 μM). As a control cells were used which were only incubated either with CIBA, FIBA or TBPI (260 μM in PBS) alone. After the incubation the cells were washed three times with PBS and in the following again incubated in Ready Mix Medium. The FITC-labelled conjugates and the Alexa-Annexin for the detection of phosphatidylserine as a signal of the cell death were localized with the confocal laser microscopy (CLSM) as in 1.6.1. All measurements were performed on living cells.

[3] = test system: human malignant LN18 glioma cells; assay: Uptake/staining of cells by FITC-labelled conjugates (CLSM, FACS, semi-thin sections); format: cell-based; settings: 20 min; for stained cells: 260 μM in PBS; for nuclear staining of cells (CLSM), in words: 260 μM
Method: The human malignant U373 and LN18 glioma cells were cultivated in 75 cm^2 culture flasks (Corning Costar) (70% confluency) under the conditions as described under 1.4, detached from the flask bottom with Accutase™ (PAA Laboratories) and in the following distributed on Eppendorf tubes (Eppendorf, Hamburg, Germany) (6×10^6 per tube). The cells in the first tube serve as a control (only PBS buffer only). The cells in the other ten tubes were each incubated with benzoic acid (BA), monoiodobenzoic acid (MIBA) or diiodobenzoic acid (DIBA) alone (260 μM), conjugate 3 alone (260 μM), conjugate 3 plus either BA, MIBA or DIBA (260 μM), respectively, and the conjugates 9, 10, and 11 alone. (260 μM).
After an incubation of 20 minutes at 37° C./5% CO2 the cells were washed three times with PBS buffer and centrifuged at 800 rpm (rounds per minute) for 5 minutes. The fluorescence was measured in Becton Dickinson FACSCalibur as described under 1.4. The computer tomography was performed as described under 1.5.1. The examinations were repeated two times. […]
The FACS analysis was performed as described under 1.4. The assay was repeated two times.
For the CT and FACS examinations human LN18 and U373 glioma cells were cultivated in 75 cm^2 culture flasks (70% confluency) (conditions as described under section 1). Accutase™ (PAA Laboratories) was added to detach the cell from the culture bottom. The cells were collected and then distributed on Eppendorf-tubes (6×10^6 cells per tube). […] The next three tubes were used for the coincubation of the cells either with trichlorobenzoic acid (TCBA), trifluorobenzoic acid (TFBA) or tribromophenyl Isocyanat (TBPI) and the NLS-FITC-conjugate 3 (260 μM). As control cells were used which were only either incubated with CIBA, FIBA, TBPI (in each case 260 μM in PBS) or with PBS-buffer (native control) alone. […] The computer tomography and FACS analysis of the cell centrifuges were performed as described in 1.5.1 or 1.4, respectively for three times.
All measurements were performed on living cells.
All measurements were performed on living cells in triplicates.
A part of the cells which were stained for the FACS analysis, was fixed by paraformaldehyl with 2% Agar, dehydrogenized in ethanol, embedded in Lowicryl K4M (Polysciences, Eppelheim, Germany) and according to the information of the manufacturer UV-polymerised at room temperature. Semi-thin sections (about 0.4 μm) were cut and evaluated by means of fluorescence microscopy.

Substance	cell death / vitality (annexin-V-Alexa 568, propidium iodide) [1]	binding of annexin-V-Alexa 568 reagent (phosphatidyl serine) / cytotoxic effects ([2]; 20 min)	cytotoxic effects / signs of cell death ([2]; 20 min)	binding of annexin-V-Alexa 568 reagent / cell viability ([2]; conjugate co-incubated with free TIBA (260 μM))	cell viability / cell death ([2]; non-TIBA conjugates, 26 μM, 260 μM and 2.6 mM)	stained cells [3] [%]	nuclear staining of cells (CLSM), in words [3]	cell viability (MTT formazan, propidium iodide uptake) ([2]; 26 μM, 20 min)	cellular morphology, side scatter versus forward scatter FACS ([2]; 26 μM, compared to PBS controls)
PKKKRKVK(FITC)GGK (FITC, GGK linker) [conjugate 3, FITC-labelled correct NLS of the SV 40 T antigen without TIBA]	remain vital; also recorded: did not show any signs of cell death; also recorded: without a sign of cell dead	did not result in binding	did not show any signs of cell death; also recorded: without a sign of cell dead	fails to result in binding; also recorded: did not result in any changes	No cell death	9	nuclear staining of few cells; also recorded: does only stain the nucleus of few cells	–	–
PKKKRKVK(FITC)GGK(BA) (FITC, GGK linker, benzoic acid) [conjugate 9, FITC-labelled NLS of the SV 40 T antigen with non-iodized benzoic acid]	remain vital; also recorded: no signs of cell death; also recorded: remain viable	–	no signs of cell death	–	–	9	nuclear staining of few cells; also recorded: the staining rate did not increase	–	–
PKKKRKVK(FITC)GGK(TIBA) (FITC, GGK linker, TIBA) [conjugate 1]	–	binding of annexin-V-Alexa™ 568 reagent was found; also recorded: Most of these cells show the expression of phosphatidyl serine in the outer membrane leaflet	–	–	–	–	–	living cells; also recorded: no signs of cell death	no changes in the cellular morphology
